Test results reported in patent US7169756B2, “Streptogramin antibiotics” (priority 2005, dated 2007).
Bridge positions count the residues as written; N and C are the ends. Square brackets hold non-standard residues; d marks the D form. Peptide text beside a SMILES is read from it. * marks the point of attachment. Picolinoyl(3-OH) = O=C(c1ncccc1O)*; Phg = N[CH](C(=O)O)c1ccccc1; Abu = CC[CH](N)C(=O)O; Dap = NC[CH](N)C(=O)O

What was measured:
in vitro translation = test: In Vitro Translation Assay; type: biochemical; settings: FIG. 6; 15 min preincubation, 1 hr at 37° C., 5% DMSO; concentration not given
Procedure: Inhibition of translation was monitored using an ActivePro In Vitro Translation Kit from Ambion. Briefly, a reaction mixture was prepared as per the manufacturer's instructions that contained all of the constituents necessary (including [^35S]-methionine) except for DNA template. These mixtures were then preincubated for 15 min at room temperature in the presence or absence of various antibiotics. Subsequent to the preincubation period, a control template containing a chloramphenicol acetyltransferase gene under control of a bacteriophage T7 promoter was added and the reaction carried out for 1 hr at 37° C. Due to the insoluble nature of some of the antibiotics, the final DMSO concentration in each reaction including controls was maintained at 5% (v/v). Aliquots were taken after 1 hr, and separated on SDS polyacrylamide gels. The efficiency of translation of ^35S-labeled […] was analyzed and quantified using a Typhoon 9200 variable mode imager (Image-Quant 5.2 software).

Human red blood cells = test: Hemolysis Assay; type: cell-based; settings: 3 and 9 hr at 37° C., A412 of supernatant, gramicidin 30 μg/ml
Procedure: Human red blood cells were freshly harvested, washed with 0.85% saline solution with 5 mM EDTA and resuspended in the same solution to an A412 of 0.6. The hemolysis assay was performed in 1.5 ml Eppendorf tubes with the addition of either 5 in DMSO, saline, gramicidin (final concentration 30 μg/ml), or DMSO (5% final), for both 3 and 9 hr at 37° C. with occasion gentle mixing. The mixtures were then centrifuged and the A412 of the supernatant measured.

E. coli BAS901/pUC19 = test: disk assay, zone of growth inhibition; type: cell-based, Escherichia coli
Text: (§1) A hyperpermeable E. coli strain, E. coli BAS901, harboring a plasmid constitutively expressing Vgb was created for in vivo studies. The plasmids pVGB, described previously in [14], and […] were digested with Xbal and BamHI, to yield an approximately 1 kb fragment containing a ribosomal binding site upstream of vgb, and linearized pUC19 backbone, respectively. The vgb fragment was then subcloned into the linearized pUC19 backbone downstream of pLac yielding pUC19-VGB. Both pUC19-VGB and pUC19 were transformed E. coli BAS901.
(§2) The antibiotic activity of the peptides synthesized in this study was initially assayed using a disk assay where samples were applied to sterile paper disks placed on a fresh lawn of bacterial culture on appropriate agar plates as required by the organism. These were then incubated for 16 hr at 37° C. and the zone of growth inhibition surrounding the disks recorded. For quantitative assessment of antibiotic activity in liquid culture, the minimal inhibitory concentration (MIC) of peptides was determined by serial dilution studies. The peptides and standard antibiotics were dissolved in DMSO and the final concentration of DMSO in the liquid cultures was 5%. Both S. aureus RN4220 and E. coli BAS901 were able to grow efficiently at this level of DMSO.
(§3) Crude material from the initial synthesis reactions was used to test the potential of the analogues as antibiotics in susceptibility assays where a solution of the compound was placed on a paper disk on a lawn of bacteria. As described above, E. coli BAS901 is deficient in the Imp/OstA protein, an outer membrane protein, involved in cell envelope biogenesis (1, 5). […] The antibiotic activity of the peptides synthesized in this study was initially assayed using a disk assay where samples were applied to sterile paper disks placed on a fresh lawn of bacterial culture on Tryptic Soya, Luria Broth, or Brain Heart Infusion Agar plates. These were then incubated for 16 hrs at 37° C. and the zone of growth inhibition surrounding the disks recorded.

E. coli BAS901/pUCVgb = test: disk assay, zone of growth inhibition; type: cell-based, Escherichia coli; settings: Vgb constitutively expressed
Text: as §1, §2, §3

| Compound | inhibition of in vitro translation (in vitro translation) | other results |
| --- | --- | --- |
| CCN(CC)CCS(=O)(=O)[C@@H]1CCN2C(=O)c3coc(n3)CC(=O)C[C@H](O)/C=C(C)/C=C/CNC(=O)/C=C/[C@@H](C)[C@@H](C(C)C)OC(=O)[C@@H]12 [dalfopristin] | did block |  |
| gramicidin S |  | hemolytic activity (Human red blood cells): lysed cells rapidly |
| CC[C@H]1OC(=O)[C@H](C)[C@@H](O[C@H]2C[C@@](C)(OC)[C@@H](O)[C@H](C)O2)[C@H](C)[C@@H](O[C@@H]2O[C@H](C)C[C@H](N(C)C)[C@H]2O)[C@](C)(O)C[C@@H](C)C(=O)[C@H](C)[C@@H](O)[C@]1(C)O [erythromycin] | did block |  |
| CCC1NC(=O)C(NC(=O)c2ncccc2O)CNC(=O)C(c2ccccc2)NC(=O)C2CCCN2C(=O)C(Cc2ccccc2)NC(=O)C2CCCN2C1=O (stereo not drawn) [Compound 8] ({Picolinoyl(3-OH)}-[Dap][Abu]PFP[Phg]; lactam 1-C; configuration not given here) |  | Zone of Inhibition (E. coli BAS901/pUC19): no antibacterial activity and n.i.; Zone of Inhibition (E. coli BAS901/pUCVgb): n.i. |
| O=C(N[C@H](CO)[C@H](O)c1ccc([N+](=O)[O-])cc1)C(Cl)Cl [chloramphenicol] | did block |  |
